This note sets out measurements from BindingDB's records for doi:10.1007/s00044-011-9593-5 (n/a, 2012).

In this assay the target is Integrase (Human immunodeficiency virus 1, UniProt Q7ZJM1). Briefly: Inhibition of Human immunodeficiency virus 1 integrase strand transfer activity.
Integrase, sequence (Q7ZJM1 whole entry): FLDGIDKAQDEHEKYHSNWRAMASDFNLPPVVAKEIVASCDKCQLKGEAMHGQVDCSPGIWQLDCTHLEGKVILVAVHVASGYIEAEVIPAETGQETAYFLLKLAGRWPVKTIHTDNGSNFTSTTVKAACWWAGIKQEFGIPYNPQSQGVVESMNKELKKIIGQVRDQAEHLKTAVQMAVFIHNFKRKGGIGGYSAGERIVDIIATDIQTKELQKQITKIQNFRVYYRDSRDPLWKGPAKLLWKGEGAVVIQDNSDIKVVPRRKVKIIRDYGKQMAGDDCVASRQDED

`CCN(CC)CCC[C@@H](C)Nc1ccnc2cc(Cl)ccc12` [Aralen] gave an IC50 of 0.25 nM. That is a sub-nanomolar value.
